Experimental data published in PubChem BioAssay (NCI).
Values joined by “and” are separate entries in the source; they are usually repeats but may differ in a detail not shown here. Equal values may be shown once.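 Compound exposure: 48 hours, 5 concentrations, 96-well plates. GI50: concentration for 50% inhibition of growth. TGI: concentration producing complete growth inhibition.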 Where a SMILES comes first, the peptide text is derived from it. [ ]: non-standard residue; d: D form. The star is where a group is joined. ξ: configuration not given here. ξF = NC(Cc1ccccc1)C(=O)O; Cbz = O=C(OCc1ccccc1)*; Aib = CC(C)(N)C(=O)O

Key:
Assay in all cases: NCI anticancer screen, dose series, 48 h
786-0 renal = tested on: 786-0 renal
UO-31 renal = tested on: UO-31 renal
OVCAR-8 ovarian = tested on: OVCAR-8 ovarian
OVCAR-4 ovarian = tested on: OVCAR-4 ovarian
TK-10 renal = tested on: TK-10 renal
SF-295 CNS = tested on: SF-295 CNS
KM12 colon = tested on: KM12 colon
HL-60(TB) leukemia = tested on: HL-60(TB) leukemia
CCRF-CEM leukemia = tested on: CCRF-CEM leukemia
LOX IMVI melanoma = tested on: LOX IMVI melanoma
IGROV1 ovarian = tested on: IGROV1 ovarian
MDA-N = tested on: MDA-N
A498 renal = tested on: A498 renal

Structure (SMILES)	TGI (786-0 renal) [µM]	TGI (UO-31 renal)	TGI (OVCAR-8 ovarian)	TGI (OVCAR-4 ovarian)	TGI (TK-10 renal) [µM]	TGI (SF-295 CNS)	TGI (KM12 colon)	TGI (HL-60(TB) leukemia)	TGI (CCRF-CEM leukemia)	TGI (LOX IMVI melanoma)	TGI (IGROV1 ovarian)	TGI (MDA-N) [µM]	TGI (A498 renal)	GI50 (OVCAR-8 ovarian) [µM]	GI50 (KM12 colon) [µM]	GI50 (UO-31 renal) [µM]	GI50 (A498 renal) [µM]	GI50 (CCRF-CEM leukemia) [µM]	GI50 (LOX IMVI melanoma) [µM]	GI50 (IGROV1 ovarian) [µM]
CCc1n[nH]c(=O)n1/N=C(\C)c1ccc([N+](=O)[O-])cc1	> 100	> 100 µM	> 100 µM	> 100 µM	> 100	> 100 µM	> 100 µM	> 100 µM	> 100 µM	> 100 µM	> 100 µM	> 100								
CCCCN1C(=O)c2c(Br)sc(Br)c2C1=O	> 100	> 100 µM	> 100 µM	91.1 µM	> 100	> 100 µM	87.5 µM		> 100 µM	> 100 µM	> 100 µM	> 100	> 100 µM							
Cc1[nH]c(=O)[nH]c(=O)c1/C=C/C(=O)NC(CO)CS(=O)CS(C)=O (centres undefined)		130 µM	122 µM	14.9 µM		77.5 µM	> 92.1 µM	57.4 µM	111 µM	86.9 µM	103 µM		130 µM							
Cc1cc2c(c(O)c1-c1c(C)cc(O)c3c1C(=O)C=CC3=O)C(=O)C=CC2=O		3.44 µM		10.3 µM	3.12	33.1 µM	32.9 µM			4.21 µM	5.11 µM	4.03	18.9 µM							
COc1ccc(-c2nc3c(nc2-c2ccc(OC)cc2)C(N)=NS(=O)(=O)N3)cc1	> 100	> 100 µM	> 100 µM		> 100	> 100 µM	> 100 µM	> 100 µM	> 100 µM	> 100 µM	> 100 µM		> 100 µM							
CC(=O)O[C@H]1CC[C@H]2[C@@H]3CCC4=CC(=O)C=C[C@]4(O)[C@H]3CC[C@]12C	> 100	> 100 µM	> 86 µM	> 100 µM	> 100	> 100 µM	52.8 µM		46.5 µM	> 54.4 µM	> 100 µM	> 60.9	> 100 µM							
CCOC(=O)Cn1c2ccc(Br)cc2c2nc3ccccc3nc21	> 100	> 100 µM	> 100 µM		> 100	> 100 µM	> 100 µM		> 100 µM	> 100 µM	> 100 µM	> 100	> 100 µM							
COc1ccc(NC(C)=O)cc1N1C(=O)/C(=C\c2ccccc2)SC1c1cc(OC)c(OC)c(OC)c1 (centres undefined)	49.2	> 100 µM	71.4 µM		> 100	> 100 µM	35.8 µM	81 µM	> 100 µM	34.5 µM	> 100 µM	> 100	> 100 µM							
CCOC(=O)CNC(=O)C(Cc1ccccc1)NC(=O)C(C)(C)NC(=O)OCc1ccccc1 (centres undefined) (Cbz-[Aib]-[ξF]-Gly-OEt)		> 100 µM	> 100 µM	> 100 µM	> 100	> 100 µM		> 100 µM	> 100 µM	> 100 µM	> 100 µM	> 100	> 100 µM							
C[Si](C)(C)c1ccc(-c2c3ccc(-c4cc(Br)cc(Br)c4)nc3nc3nc(-c4cc(Br)cc(Br)c4)ccc23)cc1	> 100	> 100 µM		> 100 µM	> 100	> 100 µM	> 100 µM					> 100	> 100 µM							
CSc1nc(CO)c(CO)n1C		> 100 µM	> 100 µM	> 100 µM		> 100 µM	> 100 µM	> 100 µM	> 100 µM	> 100 µM	> 100 µM		> 100 µM							
CC1(CO)COS(=O)OC1 (centres undefined)		> 100 µM	> 100 µM	> 100 µM	> 100	> 100 µM	> 100 µM		> 100 µM	> 100 µM		> 100	> 100 µM							
Nc1ccc(O)c2c1C(=O)c1c(N)ccc(O)c1C2=O	> 100	> 100 µM	> 100 µM	> 100 µM	> 100	> 100 µM	> 100 µM	> 100 µM	> 100 µM	> 100 µM	> 100 µM		> 100 µM							
O=C(NC(Cc1ccc(Br)cc1)C(=O)O)c1ccc(I)cc1 (centres undefined)		> 100 µM	> 100 µM	> 100 µM		> 100 µM	> 100 µM	> 100 µM	> 100 µM	> 100 µM	> 100 µM		> 100 µM							
CC(C)(C)OC(=O)N1C(OP(=O)(Oc2ccccc2)Oc2ccccc2)=CSc2ccccc21	> 100	> 100 µM	> 100 µM	> 100 µM	> 100	> 100 µM	> 100 µM	43.1 µM		> 100 µM	> 100 µM	> 100								
COc1cc(/C=N/c2nc3cc4sc(/N=C/c5cc(OC)c(OC)c(OC)c5)nc4cc3s2)cc(OC)c1OC	> 100	> 100 µM	> 100 µM	> 100 µM	> 100	> 100 µM	> 100 µM	> 100 µM		> 100 µM	> 100 µM	81.7	> 100 µM							
CC1C(=O)CC(c2cccs2)N(N=O)C1c1cccs1 (centres undefined)		> 100 µM	> 100 µM	> 100 µM		> 100 µM	> 100 µM	> 72.2 µM	> 100 µM	> 100 µM	> 100 µM		> 70.9 µM							
N#CC1=C2SCCN2C(=O)C(C#N)C12CCCCC2 (centres undefined)	> 100	> 100 µM	> 100 µM	> 100 µM	> 100	> 100 µM	> 100 µM		> 100 µM	> 100 µM	> 100 µM	> 100	> 100 µM							
CN(Cc1cn(O)c2nc(=N)nc(N)c-2n1)c1ccc(C(=O)NC23CC4CC(CC(C4)C2)C3)cc1	> 100	> 100 µM	> 100 µM		> 100	> 100 µM	> 100 µM	> 100 µM	> 100 µM	> 100 µM	> 100 µM	> 100	57.1 µM							
CN(C)CCNC(=O)c1cc(Cl)cc2cc3ccccc3nc12		4.12 µM	6.18 µM	8.04 µM		2.85 µM	10.1 µM	2.62 µM	3.28 µM	2.6 µM	8.32 µM		2.2 µM							
NC(CCOCCP(=O)(O)CCC1C=CC=CC1)C(=O)O (centres undefined)		> 100 µM	> 100 µM	> 100 µM	> 100	> 100 µM	> 100 µM	> 100 µM	> 100 µM	> 100 µM	> 100 µM	> 100								
O=C(CSCC(=O)N/N=C/c1ccccc1)N/N=C\c1ccccc1	> 100	> 100 µM	> 100 µM	> 100 µM	> 100	> 100 µM	> 100 µM		> 100 µM	> 100 µM	> 100 µM									
CCCCCCCCCCCCCCCCCCNc1ccn(C2OC(CO)C(OP(=O)(O)OCC(O)COP(=O)(O)OCC3OC(n4cc(F)c(NCCCCCCCCCCCCCCCCCC)nc4=O)CC3O)C2O)c(=O)n1 (centres undefined)	> 50	> 50 µM	> 50 µM	> 50 µM	> 50	> 50 µM	> 50 µM	> 50 µM		> 50 µM	> 50 µM	> 50	> 50 µM							
CC[C@@]1(O)C(=O)OCc2c1cc1n(c2=O)Cc2cc3ccccc3nc2-1		0.234 µM	0.555 µM	2.21 µM	51.2	0.0698 µM	5.61 µM	0.0527 µM	0.0159 µM	0.64 µM	11.3 µM		0.212 µM	0.0246	0.292					
CCCCCCCCCCCCCC1=C(O)C(=O)C(CC2=C(O)C(=O)C(CCCCCCCCCCCCC)=C(O)C2=O)=C(O)C1=O	> 100	> 100 µM	> 100 µM		> 100	> 100 µM	> 100 µM	> 100 µM	> 100 µM	> 100 µM	> 100 µM	> 100	> 100 µM							
OC[C@H]1NC[C@@H](O)[C@@H](O)[C@H]1O		> 100 µM	> 100 µM	> 100 µM	> 100	> 100 µM	> 100 µM		> 100 µM	> 100 µM	> 100 µM	> 100	> 100 µM							
Nc1[nH]c(=S)nc2nc3c(c(-c4ccccc4)c12)CCCC3		> 100 µM	> 100 µM	> 100 µM	> 100	> 100 µM	> 100 µM	> 100 µM		> 100 µM	> 100 µM	> 100								
CCN(CC)CC[n+]1ccc2c(C)c3[nH]c4ccc(O)cc4c3c(C)c2c1	> 40.7	> 96.1 µM and 150 µM	44.6 µM and 13.3 µM	23.4 µM and 30.4 µM		30.1 µM and 28.4 µM	20.1 µM and 17.6 µM	33.2 µM and 33.1 µM	33 µM and 23.1 µM	44 µM and 58.3 µM	38.6 µM and 73 µM	25.7	74.6 µM and 84.3 µM	1.23	3.72	20.6	20.5	0.808	6.73	4.79
COC(=O)C1=C(C)N2CCSC2(C)C(C(=O)OC)C1c1cccc(Cl)c1 (centres undefined)		38.3 µM	> 100 µM	> 100 µM	> 100	34 µM	62.3 µM	49.3 µM	69.5 µM		> 100 µM									
